Experimental data: US11773086B2, “Fungal modulators” (TRUSTEES OF BOSTON UNIVERSITY, priority 2020, dated 2023)

Each molecule was assayed on FLC-resistant Candida auris (assay: Checkerboard (dose-response matrix) with fluconazole, FICI). Conditions: fractional inhibitory concentration index for enhancement of FLC activity in FLC-resistant Candida auris; <0.5 strong synergy, 2 = no synergy.
Format: cell-based
Method: Generally, the synergy is measured by determining the fractional inhibitory concentration (FIC) value of the combination. […] FIC values for both agents in a particular square/well are calculated in this way followed by determination of the FIC index (sum of the FICs of each agent in the particular square/well).
(§1) Compound potency was assessed alone by dose response assays or in combination with another compound by dose-response matrixes in 96-well plates, or 384-well, flat-bottom, microtiter plates (Corning) as previously described. Plates were incubated at 30° C. for the indicated time period. Growth was quantified by measuring OD600 and corrected for medium background. All strains were assessed in biological duplicate experiments with technical duplicates. Growth was normalized to untreated controls and plotted as a heat map using Java TreeView 1.1.6r4. For dose-response matrixes fractional inhibitory concentration index at 90% growth inhibition (FICI90) was calculated as previously described. The fluconazole Etest susceptibility assay was performed as previously described. Briefly, 200 μL of 5×10^6 cells/mL were plated on YPD agar (1%) plates with either with 50 μM azoffluxin or containing DMSO.
`C=CCC[C@@H](O)COc1cc2c(cc1C1(c3cc4c(cc3OC[C@H](O)CCC=C)OCO4)C(=O)Nc3ccc(F)cc31)OCO2` [CMLD012450, 5-fluoro-3,3-bis(6-(((R)-2-hydroxyhex-5-en-1-yl)oxy)benzo[d][1,3]dioxol-5-yl)indolin-2-one] gave an FICI of 0.266. For `C=CCC[C@@H](O)COc1cc2c(cc1C1(c3cc4c(cc3OC[C@H](O)CCC=C)OCO4)C(=O)Nc3cc(Br)ccc31)OCO2` [CMLD012452, 6-bromo-3,3-bis(6-(((R)-2-hydroxyhex-5-en-1-yl)oxy)benzo[d][1,3]dioxol-5-yl)indolin-2-one], the FICI was 0.266. Molecule `C=CCC[C@@H](O)COc1cc2c(cc1C1(c3cc4c(cc3OC[C@H](O)CCC=C)OCO4)C(=O)Nc3cccc(Br)c31)OCO2` [CMLD012453, 4-bromo-3,3-bis(6-(((R)-2-hydroxyhex-5-en-1-yl)oxy)benzo[d][1,3]dioxol-5-yl)indolin-2-one] has an FICI of 0.257. Molecule `CCC[C@@H](O)COc1cc2c(cc1C1(c3cc4c(cc3OC[C@H](O)CCC)OCO4)C(=O)Nc3ccc(F)cc31)OCO2` [CMLD013619, 5-fluoro-3,3-bis(6-(((R)-2-hydroxypentyl)oxy)benzo[d][1,3]dioxol-5-yl)indolin-2-one] has an FICI of 0.255. `CC(C)C[C@@H](O)COc1cc2c(cc1C1(c3cc4c(cc3OC[C@H](O)CC(C)C)OCO4)C(=O)Nc3ccc(F)cc31)OCO2` [CMLD013622, 5-fluoro-3,3-bis(6-(((R)-2-hydroxy-4-methylpentyl)oxy)benzo[d][1,3]dioxol-5-yl)indolin-2-one] showed an FICI of 0.130. In the case of `CC(C)C[C@@H](O)COc1cc2c(cc1C1(c3cc4c(cc3OC[C@H](O)CC(C)C)OCO4)C(=O)Nc3c(F)cccc31)OCO2` [CMLD013623, 7-fluoro-3,3-bis(6-(((R)-2-hydroxy-4-methylpentyl)oxy)benzo[d][1,3]dioxol-5-yl)indolin-2-one], the FICI is reported as 0.036. Molecule `CC(C)(C)C[C@@H](O)COc1cc2c(cc1C1(c3cc4c(cc3OC[C@H](O)CC(C)(C)C)OCO4)C(=O)Nc3c(F)cccc31)OCO2` [CMLD013624, 7-fluoro-3,3-bis(6-(((R)-2-hydroxy-4,4-dimethylpentyl)oxy)benzo[d][1,3]dioxol-5-yl)indolin-2-one] has an FICI of 0.068. Molecule `CC(C)C[C@@H](O)COc1cc2c(cc1C1(c3cc4c(cc3OC[C@H](O)CC(C)C)OCCO4)C(=O)Nc3cc(F)ccc31)OCCO2` [CMLD013648, 6-fluoro-3,3-bis(7-(((2R)-2-hydroxy-4-methylpentyl)oxy)-2,3-dihydro-1,4-benzodioxin-6-yl)-2,3-dihydro-1H-indol-2-one] has an FICI of 0.255. `CC(C)C[C@@H](O)COc1cc2c(cc1C1(c3cc4c(cc3OC[C@H](O)CC(C)C)OCO4)C(=O)Nc3ccc(Br)cc31)OCO2` [CMLD013650, 5-bromo-3,3-bis(6-(((2R)-2-hydroxy-4-methylpentyl)oxy)-2H-1,3-benzodioxol-5-yl)-2,3-dihydro-1H-indol-2-one] gave an FICI of 0.300. For `CC(C)C[C@@H](O)COc1cc2c(cc1C1(c3cc4c(cc3OC[C@H](O)CC(C)C)OCO4)C(=O)Nc3cc(Br)ccc31)OCO2` [CMLD013651, 6-bromo-3,3-bis(6-(((2R)-2-hydroxy-4-methylpentyl)oxy)-2H-1,3-benzodioxol-5-yl)-2,3-dihydro-1H-indol-2-one], the FICI was 0.130. For `CC(C)(C)C[C@@H](O)COc1cc2c(cc1C1(c3cc4c(cc3OC[C@H](O)CC(C)(C)C)OCO4)C(=O)Nc3ccc(Br)cc31)OCO2` [CMLD013652, 5-bromo-3,3-bis(6-(((2R)-2-hydroxy-4,4-dimethylpentyl)oxy)-2H-1,3-benzodioxol-5-yl)-2,3-dihydro-1H-indol-2-one], the FICI was 0.175. For `CC(C)C[C@@H](O)COc1cc2c(cc1C1(c3cc4c(cc3OC[C@H](O)CC(C)C)OCCO4)C(=O)Nc3c(F)cccc31)OCCO2` [CMLD013654, 7-fluoro-3,3-bis(7-(((2R)-2-hydroxy-4-methylpentyl)oxy)-2,3-dihydro-1,4-benzodioxin-6-yl)-2,3-dihydro-1H-indol-2-one], the FICI was 0.255. `CCC[C@@H](O)COc1cc2c(cc1C1(c3cc4c(cc3OCC)OCO4)C(=O)Nc3c(F)cccc31)OCO2` (stereo partly drawn) [CMLD013655, 3-(6-ethoxy-2H-1,3-benzodioxol-5-yl)-7-fluoro-3-(6-(((2R)-2-hydroxypentyl)oxy)-2H-1,3-benzodioxol-5-yl)-2,3-dihydro-1H-indol-2-one] showed an FICI of 0.113. With `O=C1Nc2ccccc2C1(c1ccc(O)cc1)c1ccc(O)cc1` [Oxyphenisatin, oxyphenisatin, reference compound] the FICI was 2. `C=C(C)C[C@@H](O)COc1cc2c(cc1C1(c3cc4c(cc3OCC)OCO4)C(=O)Nc3cc(F)ccc31)OCO2` (stereo partly drawn) [RT-162S-015, 3-(6-ethoxybenzo[d][1,3]dioxol-5-yl)-6-fluoro-3-(6-(((R)-2-hydroxy-4-methylpent-4-en-1-yl)oxy)benzo[d][1,3]dioxol-5-yl)indolin-2-one] showed an FICI of 0.133.

The molecules below were run on C. auris (assay: microbe, parasite or virus in culture). Conditions: Candidozyma auris; Etest; read-out: fluconazole MIC in absence of azoffluxin.
Format: cell-based, Candida auris
Method: FIGS. 2A-2E illustrate the above-described screening of the BU-CMD which identified azoffluxin as a fluconazole (FLC) potentiator against C. auris. […] Growth, as determined by optical density at 600 nm (OD600), is plotted in the presence of each CMD compound alone on the y-axis and in combination with FLC on the x-axis. Dotted lines represent 7-median absolute deviations from the median for each condition. […] FIG. 2B depicts the synergistic interactions. […] Growth was measured by the OD600 and normalized to the no drug control (see color bar). The fractional inhibitory concentration index (FICI) was calculated to determine the chemical interaction, with a value below 0.5 indicating synergy. […] FIG. 2D depicts FLC Etest strips in the presence and absence of 50 μM azoffluxin. A total of 1×10^6 C. auris cells were added to YPD agar plates, the E-test strip was added, and plates were incubated at 30° C. for 24 hours prior to imaging. FIG. 2. […] Dose-response assay where a two-fold dilution of azoffluxin was titered starting from 50 μM. Indicated titrations have a background concentration of FLC of 32 μg/mL, 4 μg/mL, 0.25 μg/mL, and 0.5 μg/mL for C. auris Ci6684 (Erg11Y132F), C. albicans (SN95), C. glabrata (BG2) or S. cerevisiae (BY4741), respectively. […] Dose response assays were incubated for 48 hours at 30° C. in RPMI. Growth in each well was plotted by the relative optical density to the respective no drug control (See color bar in FIG. 2B).
as §1, with “Growth was normalized to untreated controls and plotted as a heat map using Java TreeView 1.1.6r4.” left out, “The fluconazole Etest susceptibility assay was performed as previously described. Briefly, 200 μL of 5×10^6 cells/mL were plated on YPD agar (1%) plates with either with 50 μM azoffluxin or containing DMSO.” left out
Work on `OC(Cn1cncn1)(Cn1cncn1)c1ccc(F)cc1F` [fluconazole, reference compound] yielded an MIC of over 256 µg/mL.
